Series [1] concerns Staphylococcus aureus-SMITH (GC 4543). Put plainly: Acute lethal infection in mice (ED50). The following applies: female CD-1 mice, intraperitoneal challenge, intravenous dose 30 min. after infection, 7 day survival ratios. The class given is in vivo. An outline of the steps: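 ED50 derived from pooled 7-day survival in three separate experiments, five mice per dose level. Single intravenous dose 30 min after intraperitoneal infection of female CD-1 mice with enough bacteria to kill untreated animals in 24-48 h.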

Series [2] can be described thus: Anatomic pathology (heart and kidney histopathology) in mice. The format is in vivo, CD-1 mice. The following applies: 20 mg/kg intravenously daily for 9 days, microscopic histopathology on day 10. The procedure:
20-day-old CD-1 mice were divided into a vehicle control group (5 mice) and a treatment group (5 mice). Samples of glycopeptide antibiotics were administered at 20 mg/kg intravenously daily for 9 days.
Samples of tissues from necropsied mice were formalin-fixed, paraffin-embedded, sectioned, stained with hematoxylin and eosin, and examined microscopically. Histopathologic findings were recorded. These findings were subjectively graded on a scale corresponding to slight, mild, moderate, marked and severe as compared to untreated controls.

Another series deals with Enterococcus sp. Put plainly: In vitro antibacterial evaluation: minimum inhibitory concentration (MIC), broth dilution method. The class given is cell-based. An outline of the steps:
(§1)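 Test strains, among them recent clinical isolates carrying methicillin, penicillin and/or vancomycin resistance, were inoculated at 5×10^5 CFU/mL. A broth dilution series spanning 64-0.06 μg/mL in Muller-Hinton II […] (NCCLS M7-A2) defined the MIC as the lowest growth-inhibiting concentration.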
(Dilution methods test growth across graded concentrations, often in twofold steps.)

The subject of the next series is Escherichia coli. The description is as above. The format is cell-based. An outline of the steps:
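Susceptibility determined by NCCLS-recommended broth dilution (M7-A2), Muller-Hinton II […]. Concentration span 64-0.06 μg/mL, inoculum 5×10^5 CFU/mL. Isolates include strains resistant to methicillin, penicillin and/or vancomycin.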

In a further series the test system is Staphylococcus sp. The series is described as above. The class given is cell-based. The following applies: for MIC Staphylococcus haemolyticus (GC 4546): strain GC 4546; for MIC Coagulase Negative Staphylococcus (GC 4547): strain GC 4547; for MIC Coagulase Negative Staphylococcus (GC 4548): strain GC 4548; for MIC Coagulase Negative Staphylococcus (GC 4549): strain GC 4549; for MIC Coagulase Negative Staphylococcus (GC 4551): strain GC 4551; for MIC Coagulase Negative Staphylococcus (GC 6257): strain GC 6257. An outline of the steps:
as §1

The test system of another series is Streptococcus sp. Described as above. The format is cell-based. Put shortly: as §1
[3] abbreviates: broth dilution, 18 hours at 35° C.

Take `CN=C1N(C)CC(C(O)C2NC(=O)C(Cc3ccc(OC4OC(CO)C(OC5OC(CO)C(O)C(O)C5O)C(O)C4O)cc3)NC(=O)C(C(C)c3ccccc3)NC(=O)CNC(=O)C(CO)NC(=O)C(C(O)C3CN(C)C(=NC)N3C3OC(CO)C(O)C(O)C3O)NC2=O)N1C` (stereo not drawn) [Example 64, Cyclo[glycyl-β-methylphenylalanyl-O-(4-O-hexopyranosylhexopyranosyl)tyrosyl-3-(1,3-dimethyl-2-(methylimino)imidazolidin-4-yl)seryl-3-[3-hexopyranosyl-1-methyl-2-(methylimino)imidazolidin-4-yl]-serylseryl]]: the “median effective dose (ED50), Staphylococcus aureus-SMITH (GC 4543)” value (“median effective dose (ED50)” for short) in series [1] is reported as greater than 8. Moreover, in series [2], the “Anatomical Pathology (Day 10), Heart” value is listed as 0 and the “Anatomical Pathology (Day 10), Kidney” value is 0.

For `CC(c1ccccc1)C1NC(=O)CNC(=O)C(CO)NC(=O)C(C(O)C2CN(Cc3ccc(C(=O)O)cc3)C(=N)N2C2OC(CO)C(O)C(O)C2O)NC(=O)C(C(O)C2CNC(=N)N2)NC(=O)C(Cc2ccc(OC3OC(CO)C(OC4OC(CO)C(O)C(O)C4O)C(O)C3O)cc2)NC1=O` (stereo not drawn) [Example 69, Cyclo[glycyl-β-methylphenylalanyl-O-(4-O-hexopyranosylhexopyranosyl)tyrosyl-3-(2-iminoimidazolidin-4-yl)seryl-3-[1-(4-carboxybenzyl)-2-imino-3-hexopyranosylimidazolidin-4-yl]-serylseryl]], the “median effective dose (ED50)” value in series [1] is recorded as greater than 8. Besides, in series [2], the “Anatomical Pathology (Day 10), Heart” value turned out to be 0 and the “Anatomical Pathology (Day 10), Kidney” value was 0.

As to `CCCCCCCN1CC(C(O)C2NC(=O)C(C(O)C3CNC(=N)N3)NC(=O)C(Cc3ccc(OC4OC(CO)C(OC5OC(CO)C(O)C(O)C5O)C(O)C4O)cc3)NC(=O)C(C(C)c3ccccc3)NC(=O)CNC(=O)C(CO)NC2=O)N(C2OC(CO)C(O)C(O)C2O)C1=N` (stereo not drawn) [Example 71, Cyclo[glycyl-β-methylphenylalanyl-O-(4-O-hexopyranosylhexopyranosyl]tyrosyl-3-(2-iminoimidazolidin-4-yl)seryl-3-[1-heptyl-3-hexopyranosyl-2-iminoimidazolidin-4-yl]serylseryl]], the “median effective dose (ED50)” value in series [1] is greater than 8. Moreover, in series [2], the “Anatomical Pathology (Day 10), Heart” value came out at 0 and the “Anatomical Pathology (Day 10), Kidney” value is on record as 0.

With `CN=C1N(C)CC(CC2NC(=O)C(Cc3ccc(OC4OC(CO)C(OC5OC(CO)C(O)C(O)C5O)C(O)C4O)cc3)NC(=O)C(C(C)c3ccccc3)NC(=O)CNC(=O)C(CO)NC(=O)C(CC3CN(C)C(=NC)N3C3OC(CO)C(O)C(O)C3O)NC2=O)N1C` (centres unmarked) [Example 74], in series [1], the “median effective dose (ED50)” value is on record as greater than 8. Also, in series [2], the “Anatomical Pathology (Day 10), Heart” value is given as 0 and the “Anatomical Pathology (Day 10), Kidney” value was determined as 0.

For “Tri-N-[(phenylmethoxy)carbonyl]-cyclo[glycyl-β-methylphenylalanyltyrosyl-3-(2-iminoimidazolidin-4-yl)seryl-3-(3-hexopyranosyl-2-iminoimidazolidin-4-yl)serylseryl] [Example 89]”, the “MIC Enterococcus avium (GC 4558)” value turned out to be 32 µg/mL in the series on Enterococcus sp. (Enterococcus avium (GC 4558), broth dilution, 18 hours at 35° C.) and 32 µg/mL in the series on Enterococcus sp. (strain GC 4558). The “MIC Enterococcus faecalis (ATCC 29212)” value was 64 µg/mL with Enterococcus sp. (Enterococcus faecalis (ATCC 29212), broth dilution, 18 hours at 35° C.) and 64 µg/mL with Enterococcus sp. (strain ATCC 29212). Further, the “MIC Enterococcus faecalis (GC 2242)” value in the series on Enterococcus sp. (Enterococcus faecalis (GC 2242), broth dilution, 18 hours at 35° C.) was found to be 64 µg/mL; with Enterococcus sp. (strain GC 2242), 64 µg/mL. The “MIC Enterococcus faecalis (GC 2691)” value came out at 64 µg/mL in the series with Enterococcus sp. (Enterococcus faecalis (GC 2691), broth dilution, 18 hours at 35° C.) and 64 µg/mL against Enterococcus sp. (strain GC 2691). Besides, the “MIC Enterococcus faecalis (GC 3059)” value was determined as 64 µg/mL in the series with Enterococcus sp. (Enterococcus faecalis (GC 3059), broth dilution, 18 hours at 35° C.) and 64 µg/mL against Enterococcus sp. (strain GC 3059). In addition, the “MIC Enterococcus faecalis (GC 4552)” value amounted to 64 µg/mL in the series on Enterococcus sp. (Enterococcus faecalis (GC 4552), broth dilution, 18 hours at 35° C.) and 64 µg/mL in the series with Enterococcus sp. (strain GC 4552). Besides, the “MIC Enterococcus faecalis (GC 4553)” value is 64 µg/mL against Enterococcus sp. (Enterococcus faecalis (GC 4553), broth dilution, 18 hours at 35° C.) and 64 µg/mL in the series with Enterococcus sp. (strain GC 4553). The “MIC Enterococcus faecalis (GC 4554)” value amounted to 64 µg/mL against Enterococcus sp. (Enterococcus faecalis (GC 4554), broth dilution, 18 hours at 35° C.) and 64 µg/mL against Enterococcus sp. (strain GC 4554). For the same molecule, the “MIC Enterococcus faecalis (GC 6189)” value in the series with Enterococcus sp. (Enterococcus faecalis (GC 6189), broth dilution, 18 hours at 35° C.) turned out to be 64 µg/mL; in the series on Enterococcus sp. (strain GC 6189) it was 64 µg/mL. The “MIC Enterococcus faecium (GC 2243)” value against Enterococcus sp. (Enterococcus faecium (GC 2243), broth dilution, 18 hours at 35° C.) was 64 µg/mL; with Enterococcus sp. (strain GC 2243) it was 64 µg/mL. Besides, the “MIC Enterococcus faecium (GC 4556)” value came to 64 µg/mL in the series with Enterococcus sp. (Enterococcus faecium (GC 4556), broth dilution, 18 hours at 35° C.) and 64 µg/mL in the series on Enterococcus sp. (strain GC 4556). Moreover, the “MIC Enterococcus faecium (GC 4557)” value with Enterococcus sp. (Enterococcus faecium (GC 4557), broth dilution, 18 hours at 35° C.) worked out at 32 µg/mL; against Enterococcus sp. (strain GC 4557) it was 32 µg/mL. Also, the “MIC Escherichia coli (ATCC 25922)” value against Escherichia coli (strain ATCC 25922) was greater than 64 µg/mL. For the same molecule, the “MIC Escherichia coli (GC 4559)” value in the series with Escherichia coli (strain GC 4559) is greater than 64 µg/mL. Also, in the series on Escherichia coli (strain GC 4560), the “MIC Escherichia coli (GC 4560)” value stood at 32 µg/mL. Further, the “MIC Staphylococcus aureus (ATCC 29213)” value against Staphylococcus sp. (setting [3]) was found to be 64 µg/mL; in the series on Staphylococcus sp. (strain ATCC 29213, broth dilution, 18 hours at 35° C.) it was 64 µg/mL. Besides, the “MIC Staphylococcus aureus (GC 1131)” value in the series on Staphylococcus sp. (setting [3]) amounted to 64 µg/mL; in the series on Staphylococcus sp. (strain GC 1131, broth dilution, 18 hours at 35° C.), 64 µg/mL. The “MIC Staphylococcus aureus (GC 3051)” value against Staphylococcus sp. (setting [3]) was found to be 64 µg/mL; against Staphylococcus sp. (strain GC 3051, broth dilution, 18 hours at 35° C.), 64 µg/mL. The “MIC Staphylococcus aureus (GC 3053)” value against Staphylococcus sp. (setting [3]) turned out to be 64 µg/mL; in the series on Staphylococcus sp. (strain GC 3053, broth dilution, 18 hours at 35° C.), 64 µg/mL. Also, the “MIC Staphylococcus aureus (GC 4541)” value in the series on Staphylococcus sp. (setting [3]) amounted to 64 µg/mL; with Staphylococcus sp. (strain GC 4541, broth dilution, 18 hours at 35° C.) it was 64 µg/mL. The “MIC Staphylococcus aureus (GC 4542)” value stood at 64 µg/mL in the series on Staphylococcus sp. (setting [3]) and 64 µg/mL in the series on Staphylococcus sp. (strain GC 4542, broth dilution, 18 hours at 35° C.). In addition, the “MIC Staphylococcus aureus (GC 4544)” value in the series on Staphylococcus sp. (setting [3]) was determined as 64 µg/mL; against Staphylococcus sp. (strain GC 4544, broth dilution, 18 hours at 35° C.), 64 µg/mL. For the same molecule, the “MIC Staphylococcus aureus (GC 4545)” value is 64 µg/mL in the series with Staphylococcus sp. (setting [3]) and 64 µg/mL with Staphylococcus sp. (strain GC 4545, broth dilution, 18 hours at 35° C.). The “MIC Staphylococcus aureus-SMITH (GC 4543)” value against Staphylococcus sp. (strain GC 4543, 18 hours at 35° C.) turned out to be 64 µg/mL; against Staphylococcus sp. (strain SMITH GC 4543, broth dilution, 18 hours at 35° C.) it was 64 µg/mL. Further, the “MIC Staphylococcus haemolyticus (GC 4546)” value with Staphylococcus sp. and in the series on Staphylococcus sp. (setting [3]) was 32 µg/mL each time. Moreover, the “MIC Coagulase Negative Staphylococcus (GC 4547)” value against Staphylococcus sp. and against Staphylococcus sp. (setting [3]) was 32 µg/mL each time. The “MIC Coagulase Negative Staphylococcus (GC 4548)” value in the series on Staphylococcus sp. and against Staphylococcus sp. (setting [3]) was 64 µg/mL each time. The “MIC Coagulase Negative Staphylococcus (GC 4549)” value in the series with Staphylococcus sp. and with Staphylococcus sp. (setting [3]) was 64 µg/mL throughout. Moreover, the “MIC Coagulase Negative Staphylococcus (GC 4551)” value with Staphylococcus sp. and with Staphylococcus sp. (setting [3]) was 64 µg/mL throughout. The “MIC Coagulase Negative Staphylococcus (GC 6257)” value in the series on Staphylococcus sp. and against Staphylococcus sp. (setting [3]) was 32 µg/mL in each case. Besides, the “MIC Streptococcus agalactiae (GC 4564)” value is 32 µg/mL with Streptococcus sp. (Streptococcus agalactiae (GC 4564), broth dilution, 18 hours at 35° C.) and 32 µg/mL against Streptococcus sp. (strain GC 4564). Further, the “MIC Streptococcus pneumoniae (ATCC 6301)” value in the series with Streptococcus sp. (Streptococcus pneumoniae (ATCC 6301), broth dilution, 18 hours at 35° C.) came out at 16 µg/mL; in the series with Streptococcus sp. (strain ATCC 6301) it was 16 µg/mL. In addition, the “MIC Streptococcus pneumoniae (GC 1894)” value with Streptococcus sp. (Streptococcus pneumoniae (GC 1894), broth dilution, 18 hours at 35° C.) came out at 4 µg/mL; in the series with Streptococcus sp. (strain GC 1894), 4 µg/mL. Also, the “MIC Streptococcus pneumoniae (GC 4565)” value against Streptococcus sp. (Streptococcus pneumoniae (GC 4565), broth dilution, 18 hours at 35° C.) was determined as 8 µg/mL; in the series on Streptococcus sp. (strain GC 4565), 8 µg/mL. For the same molecule, the “MIC Streptococcus pyogenes (GC 4563)” value in the series with Streptococcus sp. (Streptococcus pyogenes (GC 4563), broth dilution, 18 hours at 35° C.) worked out at 32 µg/mL; in the series with Streptococcus sp. (strain GC 4563), 32 µg/mL. Moreover, in series [1], the “median effective dose (ED50)” value was greater than 8.

Values taken from US8247211B2, “Glycopeptide antibiotics” (American Cyanamid Company, priority 2001, dated 2012).
